Drawing on patent EP4803142A2 (Kayothera Inc., priority 2021, dated 2022), this text covers IC50 for 26 compounds.

In test [1] the target is T1, hALDH1a2 (Homo sapiens, UniProt O94788).
T1 construct: pET-Aldh1a2 transformed BL21-DE3 cultures; cell extracts
T1 sequence (O94788 1-518): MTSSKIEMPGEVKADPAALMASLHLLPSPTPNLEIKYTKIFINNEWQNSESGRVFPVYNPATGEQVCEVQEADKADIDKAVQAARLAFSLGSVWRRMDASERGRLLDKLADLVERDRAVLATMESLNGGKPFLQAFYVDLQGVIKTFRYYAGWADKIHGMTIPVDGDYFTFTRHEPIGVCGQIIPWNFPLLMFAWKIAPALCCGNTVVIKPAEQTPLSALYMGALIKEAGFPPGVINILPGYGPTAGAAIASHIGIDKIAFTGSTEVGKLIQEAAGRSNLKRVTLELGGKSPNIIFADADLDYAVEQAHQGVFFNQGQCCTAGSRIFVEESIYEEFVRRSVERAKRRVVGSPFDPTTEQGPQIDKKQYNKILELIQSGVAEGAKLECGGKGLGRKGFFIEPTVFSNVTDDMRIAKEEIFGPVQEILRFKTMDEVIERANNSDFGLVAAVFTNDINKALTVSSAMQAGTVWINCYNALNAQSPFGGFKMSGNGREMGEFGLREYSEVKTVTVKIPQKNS
Briefly: biochemical. The note with it: read-out: hAldhla2 IC50. As to the method: (§1) Biological Example 5C. Aldh1a2 Enzyme Inhibition Assay
(§2) Cell extracts were spun at 16000 x g for 5 minutes.
(§3) Recombinant enzyme and inhibitor added immediately before assay. Reaction rate measured by resorufin fluorescence. […]
(§4) Table 3B. IC50 values (nM) for inhibition of hALDH1a2 and mALDH1a2 of selected compounds

Test [2] concerns the target T2, mALDH1a2 (Mus musculus, UniProt Q62148).
T2 construct: pET-Aldh1a2 transformed BL21-DE3 cultures; cell extracts
T2 sequence (Q62148 1-518): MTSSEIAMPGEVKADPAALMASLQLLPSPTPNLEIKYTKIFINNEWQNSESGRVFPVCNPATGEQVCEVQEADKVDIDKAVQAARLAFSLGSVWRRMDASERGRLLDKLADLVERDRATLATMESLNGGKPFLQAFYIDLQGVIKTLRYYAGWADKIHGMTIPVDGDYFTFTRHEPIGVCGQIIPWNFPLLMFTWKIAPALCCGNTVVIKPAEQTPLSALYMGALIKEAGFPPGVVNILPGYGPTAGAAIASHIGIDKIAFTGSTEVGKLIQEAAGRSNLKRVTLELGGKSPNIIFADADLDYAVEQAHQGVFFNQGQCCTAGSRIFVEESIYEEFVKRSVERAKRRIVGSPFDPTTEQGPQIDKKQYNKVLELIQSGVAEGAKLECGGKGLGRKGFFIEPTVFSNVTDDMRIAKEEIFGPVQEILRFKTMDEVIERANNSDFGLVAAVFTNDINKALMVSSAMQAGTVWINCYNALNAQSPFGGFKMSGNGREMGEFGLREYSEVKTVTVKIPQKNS
Nature of the test: biochemical. The conditions noted are these: read-out: mAldhla2 IC50. As to the method:
as §1, §2, §3, §4

As a reminder, the IC50 is the concentration that inhibits the measured activity by half. Turning to `CCc1cnccc1C(=O)Nc1ccc2c(c1)C(C)(C)C(=O)N2` [compound 137], the IC50 in test [1] was more than 10 µM; in test [2], more than 100 µM.
With `CC1(C)Cc2cc(Nc3ccc4ccncc4c3)ccc2NC1=O` [compound 104], the IC50 in test [1] and in test [2] was more than 10 µM each time.
Consider `O=C1CCc2cc(Oc3ncc4ccccc4n3)ccc2N1` [compound 119], for which the IC50 was more than 10 µM in test [1] and 10 µM in test [2].
For `CC1(C)Cc2cc(Nc3nc4ccccc4[nH]3)ccc2NC1=O` [compound 98] the same measures were 3.08 µM and 1.29 µM.
The like results for `CCc1cnc(C)cc1C(=O)Nc1cc2c(cc1F)NC(=O)CC2` [compound 79] were, in that order, 1.46 µM and 0.849 µM.
With `CCc1ccccc1C(=O)Nc1cc2c(cc1F)NC(=O)CC2` [compound 4], the IC50 in test [1] was found to be 5 µM; in test [2], 4 µM.
For `CC1(C)Cc2cc(Nc3ccc4ccccc4n3)ccc2NC1=O` [compound 46] the same measures were 0.248 µM and 0.162 µM.
The like results for `CCc1cnccc1C(=O)Nc1cc2c(cc1Cl)NC(=O)CC2` [compound 70] were, in that order, more than 10 µM and 2.96 µM.
For `CCc1cnccc1C(=O)Nc1ccc2c(c1)CC(C)(C)C(=O)N2` [compound 18] the same measures were 2.13 µM and 1.74 µM.
In the case of `CCc1cccnc1C(=O)Nc1cc2c(cc1Cl)NC(=O)CC2` [compound 72], the half-inhibitory concentration (IC50) in test [1] and in test [2] was more than 10 µM in each case.
In the case of `CCc1cnccc1/C=C/c1cc2c(cc1F)NC(=O)CC2` [compound 45], the concentration for half-maximal inhibition (IC50) was found to be 0.293 µM in test [1] and 3.33 µM in test [2].
In the case of `O=C1CCc2cc(NCc3ccccc3)ccc2N1` [compound 14], the IC50 in test [1] and in test [2] was 10 µM throughout.
In the case of `CCc1c(C(=O)Nc2ccc3c(c2)CCC(=O)N3)ccnc1C` [compound 55], the concentration for half-maximal inhibition (IC50) in test [1] and in test [2] was more than 10 µM in each case.
For the compound `CC1(C)Cc2cc(Nc3cc(Cl)c(Cl)cn3)ccc2NC1=O` [compound 125], the results for the half-inhibitory concentration (IC50) in test [1] and in test [2] were 4.49 µM and 4.05 µM, respectively.
The like results for `CCCc1cnccc1C(=O)Nc1ccc2c(c1)CCC(=O)N2` [compound 60] were, in that order, 1.53 µM and 0.935 µM.
For `Cc1nc(Nc2ccc3c(c2)CC(C)(C)C(=O)N3)nc2ccccc12` [compound 132] the same measures were 0.071 µM and 0.053 µM.
For `CCc1c(C(=O)Nc2ccc3c(c2)CCC(=O)N3)cc[nH]c1=O` [compound 50] the same measures were more than 10 µM and more than 10 µM.
For `CCc1cnccc1/C=C/c1ccc2c(c1)CC(C)(C)C(=O)N2` [compound 43], the IC50 was 1.2 µM in test [1] and 3 µM in test [2].
Regarding `CC1(C)CC(=O)Nc2ccc(Nc3nccc4ccccc34)cc21` [compound 34], the IC50 in test [1] amounted to 39.2 µM; in test [2], 30.9 µM.
The like results for `C=CCc1cnccc1C(=O)Nc1ccc2c(c1)CCC(=O)N2` [compound 71] were, in that order, 0.963 µM and 0.747 µM.
For `CC(C)Cc1cnccc1C(=O)Nc1cc2c(cc1F)NC(=O)CC2` [compound 7] the same measures were 3.5 µM and 9 µM.
For `CC1(C)Cc2cc(Nc3ccc(Cl)cn3)ccc2NC1=O` [compound 123] the same measures were more than 10 µM and more than 10 µM.
For `O=C1CCc2cc(Nc3cnc4ccccc4n3)ncc2N1` [compound 126], the values for the IC50 in test [1] and in test [2] were 0.214 µM and 0.165 µM, respectively.
For `CCc1cnc(F)cc1C(=O)Nc1ccc2c(c1)CCC(=O)N2` [compound 78] the same measures were 0.46 µM and 0.366 µM.
With `CCc1cnccc1C(=O)Nc1ccc2c(c1)C(F)(F)C(=O)N2` [compound 136], the concentration for half-maximal inhibition (IC50) in test [1] and in test [2] was more than 10 µM in each case.
Consider `Cc1ccc(C)c(CNc2ccc3c(c2)CCC(=O)N3)c1` [compound 10], for which the half-maximal inhibitory concentration (IC50) in test [1] worked out at 9 µM; in test [2], 3.5 µM.
